Assay results taken from PMC12073438, “Stereoselectivity of In Vivo Processes and Bioactivity of Farrerol Enantiomers” (Molecules, 2025).
Where “and” joins values, the source holds several entries; their conditions need not be identical. Equal values may be shown once.

Columns and labels:
[1] = Stereoselective pharmacokinetics in rat liver tissue; type: in vivo, Sprague–Dawley rats; details: rat liver, oral 40 mg/kg farrerol racemate; for Cmax / AUC(0–t) / AUC(0–∞): 40 mg/kg
Protocol: (§1) Forty-two rats were divided randomly into seven groups (6 rats per time point at 0.5, 1, 2, 4, 8, 12, and 24 h) and were orally administered farrerol racemate at a dose of 40 mg/kg. Rats from each group were euthanized, and kidney and liver tissues were subsequently obtained. After washing three times using 0.9% sodium chloride solution, the attached blood and fat tissues were removed. Afterward, 0.5 g of the precisely weighed liver and kidney tissues were added to 1 mL 0.9% sodium chloride solution and homogenized in an ice bath. Subsequently, 150 µL of supernatant was transferred into a 2.0 mL EP tube for pre-treatment, in the same way as the pretreatment of plasma samples (see Section 3.4.1).
(§2) Stereoselective chromatographic analysis of farrerol enantiomers was conducted utilizing an ACQUITY UPLC I-Class UPLC system (Waters, Milford, MA, USA), which is equipped with a quaternary pump and an autosampler. The chiral separation was carried out employing a Chiralpak OJ-RH column (250 mm × 4.6 mm, 5 μm), which was obtained from Daicel Chemical Industries (Shanghai, China). The mobile phase consisted of ACN-H2O (60:40, v/v), and the constant flow rate was 0.5 mL/min. The column temperature was set at 25 °C, and the injection volume was 10 μL.
(§3) Mass detection was conducted using a triple quadrupole mass spectrometer (Waters Co., USA) equipped with an electrospray ionization (ESI) source. The detection of enantiomers and internal standards (IS) was carried out in multiple reaction monitoring (MRM) mode utilizing negative ionization. The m/z 299→179 for enantiomers and m/z 267→252 for IS were selected as detecting ions for quantitation. The collision energies (CE) were established at 22 eV and 20 eV, respectively. The primary mass spectrometry (MS) parameters were configured as follows: capillary voltage was set to 3.5 kV, ion source temperature was maintained at 150 °C, desolvation gas flow rate was 800 L/h, and the cone voltage (CV) was adjusted to 1.3 V.
(§4) Pharmacokinetic analysis was conducted utilizing the Drug and Statistics (DAS) 2.0 software provided by the Chinese Pharmacological Society. To assess the differences in pharmacokinetic parameters, the IC50 values of the evaluated CYP enzymes and the permeability coefficients between the two farrerol enantiomers, paired sample t-tests and independent sample t-tests were performed. Statistical significance was defined as * p < 0.05 and ** p < 0.01. All results are presented as mean values ± standard deviation (SD).

[2] = molecular target: CYP2E1 (Homo sapiens, UniProt P05181); test: CYP inhibition in liver microsomes (chlorzoxazone); type: in vitro ADME; details: CYP 2E1, marker substrate chlorzoxazone
Protocol: (§5) A liver microsome working solution (20 mg/mL) contained potassium phosphate buffer (0.1 M, pH 7.4), hepatic microsomes and marker substrate solution, which phenacetin, diclofenic acid, S-mephenytoinwer, dextromethorphan, midazolam, coumarin and chlorzoxazone used as substrates for […], CYP2C9, CYP2C19, CYP2D6, CYP3A4/5, CYP2A6 and CYP2E1, respectively. In brief, 238.5 µL of liver microsome working solution was placed in a 1 mL EP tube. […] The reaction was started by injecting NADPH (1 mM), and the resulting mixture was incubated at 37 °C for 10 min. After centrifuging at 4000 rpm for 15 min, the supernatant was transferred and analyzed using LC-MS/MS to detect the corresponding metabolites. Each incubation was conducted in triplicate (n = 3).
An API 4000 LC/tandem mass spectrometry was used to analyze the concentration of metabolites of various chemical agents using a validated mode. An Atlantis T3 column (2.1 mm × 50 mm, 5 μm) was utilized, employing mobile phases consisting of a 0.1% formic acid solution (A) and a 0.1% acetonitrile formate solution (B). […] MRM was utilized to quantify each metabolite, detecting the following transitions: m/z 152.1/110 for acetaminophen, 312.1/230.0 for 4′-Hydroxydiclofenac, 235.0/150.0 for 4′-hydroxymephentoin, 258.2/199.1 for Dextrorphan, 342.1/203.0 for 1′-hydroxymidazolam, 161.1/133.1 for hydroxycoumarin, and 184.0/120.0 for 6-hydroxyclozoxadone.

[3] = system: CYP3A4/5; test: CYP inhibition in liver microsomes (midazolam); details: CYP 3A4/5(M); marker substrate midazolam; liver microsomes
Protocol: as §5
An API 4000 LC/tandem mass spectrometry was used to analyze the concentration of metabolites of various chemical agents using a validated mode. An Atlantis T3 column (2.1 mm × 50 mm, 5 μm) was utilized, employing mobile phases consisting of a 0.1% formic acid solution (A) and a 0.1% acetonitrile formate solution (B). […] As for the detection of CYP 2E1 metabolite, the Flow composition was as follows: 0–0.30 min, 10% B; 0.30–1.30 min, 10–55% B; 1.30–1.50 min, 55–95% B; 1.50–2.00 min, 95% B; 2.00–2.01 min, 95–10% B; the low rate was 0.85 mL/min. ESI was conducted in positive ion mode. MRM was utilized to quantify each metabolite, detecting the following transitions: m/z 152.1/110 for acetaminophen, 312.1/230.0 for 4′-Hydroxydiclofenac, 235.0/150.0 for 4′-hydroxymephentoin, 258.2/199.1 for Dextrorphan, 342.1/203.0 for 1′-hydroxymidazolam, 161.1/133.1 for hydroxycoumarin, and 184.0/120.0 for 6-hydroxyclozoxadone.

[4] = Stereoselective pharmacokinetics in rat kidney tissue; type: in vivo, Sprague–Dawley rats; details: rat kidney, oral 40 mg/kg farrerol racemate; for Cmax / AUC(0–t) / AUC(0–∞): 40 mg/kg
Protocol: as §1, §2, §3, §4

Chain of CYP2E1 (P05181 whole entry): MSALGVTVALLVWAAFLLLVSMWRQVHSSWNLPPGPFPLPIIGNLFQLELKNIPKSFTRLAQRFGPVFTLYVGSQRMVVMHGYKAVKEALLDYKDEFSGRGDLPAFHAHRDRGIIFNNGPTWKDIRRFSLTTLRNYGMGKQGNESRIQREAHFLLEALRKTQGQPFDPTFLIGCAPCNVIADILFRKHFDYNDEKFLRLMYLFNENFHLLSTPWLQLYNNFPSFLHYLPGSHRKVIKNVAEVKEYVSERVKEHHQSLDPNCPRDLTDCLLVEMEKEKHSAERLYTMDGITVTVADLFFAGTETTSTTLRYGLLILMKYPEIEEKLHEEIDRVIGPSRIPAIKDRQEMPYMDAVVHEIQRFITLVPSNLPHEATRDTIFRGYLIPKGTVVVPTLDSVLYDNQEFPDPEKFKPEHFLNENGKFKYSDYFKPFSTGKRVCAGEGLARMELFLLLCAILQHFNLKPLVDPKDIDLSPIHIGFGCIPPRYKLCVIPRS

Structure (SMILES)	Cmax ([1]; Sprague-Dawley, rat, liver, po, read-out: Cmax)	Tmax ([1]; Sprague-Dawley, read-out: Tmax)	AUC(0–t) [1]	AUC(0–∞) [1]	IC50 [2]	IC50 [3]	Cmax ([4]; Sprague-Dawley, rat, kidney, po, read-out: Cmax)	Tmax ([4]; Sprague-Dawley, read-out: Tmax)	AUC(0–t) [4]	AUC(0–∞) [4]	AUC0–24 of (−)-farrerol relative to (+)-farrerol [1]	Cmax of (−)-farrerol relative to (+)-farrerol [1]	Tmax [1]	Cmax [1]	AUC0–24 of (−)-farrerol relative to (+)-farrerol [4]	Tmax [4]	Cmax [4]
Cc1c(O)c(C)c2c(c1O)C(=O)CC(c1ccc(O)cc1)O2 (single isomer, unassigned; (+)) [(+)-farrerol, 2,3-dihydro-5,7-dihydroxy-2-(4-hydroxyphenyl)-6,8-dimethyl-4-benzopyrone]	104000 ± 18000 ng/g	2 h	976.25 ± 41.60 µg·h/g	994.01 ± 40.84 µg·h/g	> 50 µM	> 5e-05 M	3020 ± 350 ng/g	1 h	23.93 ± 2.11 µg·h/g	25.70 ± 2.09 µg·h/g	–	–	–	–	–	–	–
Cc1c(O)c(C)c2c(c1O)C(=O)CC(c1ccc(O)cc1)O2 (single isomer, unassigned; (-)) [(−)-farrerol, 2,3-dihydro-5,7-dihydroxy-2-(4-hydroxyphenyl)-6,8-dimethyl-4-benzopyrone]	–	–	1200.9 µg/g*h and 1200.96 ± 58.92 * µg/g*h	1217.62 ± 65.03 * µg/g*h	> 50 µM	2.09e-05 M	–	–	28.89 ± 2.53 * µg/g*h	30.31 ± 2.47 * µg/g*h	1.23 times	1.43 times	2.00 h	148.4 ± 2.61 * µg/g	1.20 times	1.00 h	4.18 ± 0.48 * µg/g
